Experimental data published in publication PMC5384001 (Scientific Reports, 2017).
Positions count from the first letter of the chain named.

Columns and labels:
[1] = target: T1, GluD2-Lc(S544G)-(HS2)GluN1 (Rattus norvegicus, UniProt Q63226, A654T/A766F/D767R/N763E/R768S/S544G/T764L/V761T/V765F); experiment: Two-electrode voltage clamp in Xenopus oocytes, inhibition of spontaneous currents; format: cell-based; conditions: fraction of spontaneous current inhibited by saturating D-serine
T1 construct: the function of full-length receptors as well, we introduced them into the GluD2 lurcher mutant (GluD2-Lc); expressed in transfected cells; host or cells: Xenopus laevis oocytes injected with cRNA
T1 sequence (Q63226 24-1007 S544G/A654T/V761T/N763E/T764L/V765F/A766F/D767R/R768S): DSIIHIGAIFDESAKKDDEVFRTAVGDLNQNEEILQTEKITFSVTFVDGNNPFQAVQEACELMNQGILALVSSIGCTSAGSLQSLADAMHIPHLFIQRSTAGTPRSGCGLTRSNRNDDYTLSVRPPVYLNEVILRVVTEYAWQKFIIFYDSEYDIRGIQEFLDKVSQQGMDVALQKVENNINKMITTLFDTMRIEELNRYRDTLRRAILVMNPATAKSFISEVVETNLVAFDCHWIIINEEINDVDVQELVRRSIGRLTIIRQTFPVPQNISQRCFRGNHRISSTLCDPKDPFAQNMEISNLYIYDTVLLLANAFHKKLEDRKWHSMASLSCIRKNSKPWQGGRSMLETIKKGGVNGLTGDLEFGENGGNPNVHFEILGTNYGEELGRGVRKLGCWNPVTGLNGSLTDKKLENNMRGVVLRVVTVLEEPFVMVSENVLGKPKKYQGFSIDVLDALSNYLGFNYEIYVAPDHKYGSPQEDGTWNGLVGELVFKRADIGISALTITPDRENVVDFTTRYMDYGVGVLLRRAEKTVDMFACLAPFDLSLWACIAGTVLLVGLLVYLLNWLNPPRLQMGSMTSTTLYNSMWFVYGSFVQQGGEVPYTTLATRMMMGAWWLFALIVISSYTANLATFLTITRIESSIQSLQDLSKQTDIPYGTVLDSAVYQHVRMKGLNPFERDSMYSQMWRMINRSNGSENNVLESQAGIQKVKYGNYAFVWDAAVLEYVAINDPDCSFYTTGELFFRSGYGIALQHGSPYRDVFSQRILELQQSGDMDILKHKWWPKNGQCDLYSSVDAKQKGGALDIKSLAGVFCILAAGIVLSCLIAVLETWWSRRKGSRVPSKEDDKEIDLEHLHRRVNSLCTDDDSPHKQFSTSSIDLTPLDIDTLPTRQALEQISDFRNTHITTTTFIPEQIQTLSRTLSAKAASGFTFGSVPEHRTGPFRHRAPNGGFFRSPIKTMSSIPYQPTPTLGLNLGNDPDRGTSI
Source text: (§1) All cDNAs for expression in Xenopus oocytes were cloned into the vector pSGEM[30]. Point mutants of GluD2-Lc were constructed by overlap extension PCR with mutagenic oligonucleotide primers. The GluD2-Lc-(H)GluN1 chimera was constructed by transferring the S1- and S2-encoding sequences from GluD2-LBD-(H)GluN1 to GluD2-Lc via overlap extension PCR using tail primers. The S1 and S2 sequences were transferred separately, yielding GluD2-Lc-(HS1)GluN1 and GluD2-Lc-(HS2)GluN1 constructs. GluD2-Lc-(H)GluN1 was then produced from these by another overlap extension PCR. Complementary RNA (cRNA) for injection into oocytes was synthesised from 1 μg of linearised template DNA with the mMESSAGE mMACHINE in vitro transcription kit (Ambion, Austin, TX, USA).
(§2) Oocytes were obtained by surgically removing parts of the ovaries from Xenopus laevis (Nasco, Fort Atkinson, WI, USA) anaesthetised with 1.5 g/L 3-aminobenzoic acid ethylester (Sigma, Taufkirchen, Germany). […] Oocytes were injected with 11 ng cRNA (10 ng of each cRNA for co-expression of GluN1 and GluN2A) using a nanoliter injector (WPI, Sarasota, FL, USA). Four days after cRNA injection, current responses were recorded under voltage clamp at –70 mV with a Turbo Tec-10CD amplifier (npi electronic, Tamm, Germany) controlled by Patchmaster software (HEKA, Lambrecht, Germany). Currents were filtered with a 20 Hz low-pass filter and then digitised with a sampling rate of 50 Hz. Recording electrodes were pulled from borosilicate glass (Hilgenberg, Malsfeld, Germany) with an L/M-3P-A vertical pipette puller (List-Medical), filled with 3 M KCl, and had resistances of 0.5–5 MΩ (voltage electrode) or 0.5–1.5 MΩ (current electrode). Recordings were performed in a 50 μL chamber under constant superfusion with extracellular solution at a flow rate of 3–5 mL/min. […] Finally, Ba-NFR and then NMDGR were applied again to check for reversibility.

GluD2-Lc(Y770F) = target: T2, GluD2-Lc(Y770F) (Rattus norvegicus, UniProt Q63226, A654T/Y770F); experiment: as above; format: cell-based; conditions: fraction of spontaneous current inhibited by saturating D-serine
T2 construct: the function of full-length receptors as well, we introduced them into the GluD2 lurcher mutant (GluD2-Lc); expressed in transfected cells; host or cells: Xenopus laevis oocytes injected with cRNA
T2 sequence (Q63226 24-1007 A654T/Y770F): T1 sequence (Q63226 24-1007 S544G/A654T/V761T/N763E/T764L/V765F/A766F/D767R/R768S) with G521S, T738V, E740N, L741T, F742V, F743A, R744D, S745R, Y747F
Source text: as §1, §2

N[C@H](CO)C(=O)O [D-serine]
D-serine efficacy Mean ± SEM [1]: 40.6 ± 0.5%
D-serine efficacy Mean ± SEM (GluD2-Lc(Y770F)): 59.9 ± 1.7%
